Measured values: patent US20100152270A1, “PESTICIDE COMPOSITION COMPRISING A STRIGOLACTONE DERIVATIVE AND A FUNGICIDE COMPOUND” (priority 2007, published 2010)
Where two headings read alike, the source gives them in different places.

Legend:
Type in all cases: cell-based
Botrytis cinerea = Botrytis cinerea microtest in liquid medium (PDB), microtitre plates, optical density; conditions: 5 days incubation, 100% = no fungal growth
Pyricularia oryzae = conditions: 3 days incubation, 100% = no fungal growth
Gibberella zeae = conditions: 3 days incubation, 100% = no fungal growth
Rhizoctonia solani = Rhizoctonia solani microtest in liquid medium (PDB), microtitre plates, optical density; conditions: 5 days incubation, 100% = no fungal growth

`Cc1nn(C)c(F)c1C(=O)Nc1ccccc1C(C)CC(C)C` (stereo not shown) [N-[2-(1,3-Dimethylbutyl)phenyl]-5-fluor-1,3-dimethyl-1H-pyrazol-4-carboxamid] gave an Efficacy in % (Botrytis cinerea; 0.001 ppm) of 17%.

Work on `CC1=CC(O/C=C2/C(=O)OC3c4ccccc4CC23)OC1=O` (stereo not shown) [Compound A] yielded an Efficacy in % (Pyricularia oryzae; 0.00003 ppm) of 4%, an Efficacy in % (Botrytis cinerea; 0.0000001 ppm) of 8% and an Efficacy in % (Botrytis cinerea; 0.00003 ppm) of 1%. For the same compound, the Efficacy in % (Gibberella zeae; 0.0000001 ppm) was 35% and the Efficacy in % (Rhizoctonia solani; 0.0000001 ppm) was 26%.

For `OC(Cc1ccccc1Cl)(Cn1nc[nH]c1=S)C1(Cl)CC1` (stereo not shown) [Prothioconazole], the Efficacy in % (Botrytis cinerea; 0.3 ppm) was 40%.

With `CON=C(C(=O)OC)c1ccccc1CON=C(C)c1cccc(C(F)(F)F)c1` [Trifloxystrobin] the Efficacy in % (Pyricularia oryzae; 0.3 ppm) was 58%.

`COCC(=O)N(c1c(C)cccc1C)C(C)C(=O)OC` (stereo not shown) [Metalaxyl] showed an Efficacy in % (Rhizoctonia solani; 0.001 ppm) of 27%.

`CC(C)(C)C(O)(CCc1ccc(Cl)cc1)Cn1cncn1` (stereo not shown) [Tebuconazole] showed an Efficacy in % (Gibberella zeae; 0.001 ppm) of 23%.
